Results: US20180362598A1 (priority 2016, published 2018)

Test system: insect gut protease (X condition)
Assay type: biochemical

Substance	% of Max Slope X
IFVALKGS	69%
LFVALKGS	92%
LFVRLRGS	94%
LKLFVGS	98%
LRLFVGS	74%
